{
  "source": "patent US11459586B2",
  "about": "“Methods for increasing efficiency of nuclease-mediated gene editing in stem cells” (President and Fellows of Harvard College, priority 2016, dated 2022)",
  "key": {"human iPSC [1]": {"system": "human iPSC", "test": "mThy1 gene targeting in hiPSC with chemical inhibitors added after nucleofection (flow cytometry)", "type": "cell-based", "conditions": "for mThy1 gene targeting efficiencies: PGP1 hiPSC, administered after plasmid nucleofection, indicated concentrations (FIG. 9D)", "experimental": "FIGS. 9A-G. Effects of chemical and genetic inhibitors on mThy1 gene targeting in hiPSC. FIG. 9A. Mouse Thy1 gene targeting scheme. Human iPSC were nucleofected with the mThy1 targeting vector system plasmids and analyzed by flow cytometry five days later. The percentages of mThy1^+hThy1^−, mThy1^+hThy1^+, and mThy1^−hThy1^− cells for each sample (gated on live single cells) are graphed. Lines mark the percentage values for the control sample. FIGS. 9B-9D. Human iPSC were nucleofected with: 2 μg mThy1 targeting vector; 0.5 μg Cas9 plasmid; and 1.5 μg of sgRNA plasmids. The sample was divided into multiple wells and cultured in plain media (mTeSR1+10 μM Y-27632 ROCK inhibitor) supplemented with the indicated chemical inhibitor for three days. 20 μM pifithrin α, 200 μM peptide V5 (VPMLK, SEQ ID NO:31), 200 μM peptide control (IPMIK, SEQ ID NO:32), 50 μM TEMPOL, or the indicated concentrations of SCR7 or L755507 were used. FIG. 9B, mThy1^+hThy1^− (bottom portion of each bar in each graph), mThy1^+hThy1^+ (top portion of each bar in each graph). FIG. 9C, mThy1^+hThy1^− (bottom portion of each bar in each graph), mThy1^+hThy1^+ (top portion of each bar in left and center graphs, middle portion of each bar in right graph), and mThy1^−hThy1^− (top portion of each bar in right graph). FIG. 9D, mThy1^+hThy1^− (bottom portion of each bar in each graph), mThy1^+hThy1^+ (center portion of each bar in each graph), and mThy1^−hThy1^− (top portion of each bar in each graph). FIGS. 9E-9F. Human iPSC were nucleofected with: 2 μg mThy1 targeting vector plasmid; 0.5 μg Cas9 plasmid; 1 μg of sgRNA plasmids; and 0.5 μg of plasmid expressing the indicated DNA repair gene or pUC19 control (“Cas9 only”). For FIG. 9E, cultures were treated with 50 μM zVAD and 10 μM SB203580 post transfection. mThy1^+hThy1^− (bottom portion of each bar in each graph), mThy1^+hThy1^+ (top portion of each bar in left and center graphs, middle portion of each bar in right graph), and mThy1^−hThy1^− (top portion of each bar in right graph). FIG. 9F, mThy1^+hThy1^− (bottom portion of each bar in each graph), mThy1^+hThy1^+ (top portion of each bar in left and center graphs, middle portion of each bar in right graph), and mThy1^−hThy1^− (top portion of each bar in right graph). FIG. 9G. Human iPSC were nucleofected with: 2 μg mThy1 targeting vector plasmid; 0.5 μg Cas9 plasmid; and 1.5 μg of sgRNA plasmids. The indicated viral inhibitor genes were cloned into the Cas9 expression vector following an IRES sequence. Cultures were supplemented with 50 μM zVAD post transfection. mThy1^+hThy1^− (bottom portion of each bar in each graph), mThy1^+hThy1^+ (top portion of each bar in left and center graphs, middle portion of each bar in right graph), and mThy1^−hThy1^− (top portion of each bar in right graph).\nFIGS. 10A-F. Effect of Caspase and p38 MAPK inhibitors on survival and gene targeting of human iPSC. FIG. 10A and FIG. 10B. Mouse Thy1 gene targeting scheme. Human iPSC were nucleofected with the mThy1 targeting vector, Cas9 nuclease, and Thy1 sgRNA expressing plasmid or pUC19 empty vector. Nucleofected cells were evenly divided and plated onto plain media (mTeSR1+10 μM Y-27632 ROCK inhibitor), or media supplemented with the indicated chemical inhibitor. For specific caspase inhibitors, the principal caspase they target is noted in parentheses. As observed in previous reports, most of the nuclease-mediated cell death occurred between days 1-2 post transfection, and the proportions of mThy1^+ cells remained stable beyond day 5. FIG. 10C. Two days after nucleofection, viable cells were counted. Error bars indicate s.e.m. of technical duplicates. Lines mark the count levels for nucleofected cells in plain media with or without sgRNA. FIG. 10D. Five days after transfection, cells were analyzed by flow cytometry for mThy1 and hThy1 expression. The percent of mThy1^+hThy1^− (bottom of each bar) and mThy1^+hThy1^+ (top of each bar) cells of live single cells is indicated. […]"}, "human iPSC [2]": {"system": "human iPSC", "type": "cell-based", "conditions": "for rescue of hiPSC from cell death (anoikis) after nucleofection: viable cells two days after nucleofection, sgRNA plasmid or pUC19 control", "experimental": "FIGS. 10A-F. Effect of Caspase and p38 MAPK inhibitors on survival and gene targeting of human iPSC. FIG. 10A and FIG. 10B. Mouse Thy1 gene targeting scheme. Human iPSC were nucleofected with the mThy1 targeting vector, Cas9 nuclease, and Thy1 sgRNA expressing plasmid or pUC19 empty vector. Nucleofected cells were evenly divided and plated onto plain media (mTeSR1+10 μM Y-27632 ROCK inhibitor), or media supplemented with the indicated chemical inhibitor. For specific caspase inhibitors, the principal caspase they target is noted in parentheses. […] FIG. 10C. Two days after nucleofection, viable cells were counted. Error bars indicate s.e.m. of technical duplicates. Lines mark the count levels for nucleofected cells in plain media with or without sgRNA. FIG. 10D. Five days after transfection, cells were analyzed by flow cytometry for mThy1 and hThy1 expression. The percent of mThy1^+hThy1^− (bottom of each bar) and mThy1^+hThy1^+ (top of each bar) cells of live single cells is indicated. Lines mark the levels for cells in plain media. […] FIG. 10E. FACS plots of human iPSC transfected with the mThy1 targeting vector, Cas9 nuclease, and Thy1 Left and Right sgRNAs. Cells were subsequently cultured for 5 days in plain media±50 μM zVAD and ±10 μM SB203580. FIG. 10F. Human iPSC cultures were single cell FACS sorted into 96-well tissue culture plates containing a MEF feeder layer and hES media supplemented with SMC4 inhibitors±50 μM zVAD for eight days. Ten days after sorting, the number of surviving iPSC colonies was counted (from 190 cells sorted). PGP1 hiPSC lines created using retroviral vectors or non-integrating methods were both tested.\nPluripotency of iPSC cultures was verified by flow cytometry staining using anti-human Tra-1/60 PE (TRA-1-60, BD) and anti-human Oct3/4 eFluor 660 (EM92, eBioscience) with the fixation buffer sold under the trademark BD CYTOFIX™ and permeabilization buffer sold under the trademark PHOSFLOW™ Perm/Wash buffers. Human g-band karyotype analysis was done by Cell Line Genetics. Viable cell counts were measured with the cell analyzer sold under the trademark MUSE® Count & Viability Assay kit (EMD Millipore). Anti-human HLA-A2 APC (BB7.2) and anti-human HLA-BC PE (B1.23.2) were purchased from eBioscience. Human iPSC cultures were treated with 50 ng/ml recombinant interferon gamma (eBioscience) for 2 days prior to HLA staining.\nPlasmids were purified using the plasmid DNA purification kit sold under the trademark Qiagen ENDOFREE® Plasmid Maxi kit and nucleofected into iPSC cells using the Lonza 4D-Nucleofector X unit (Buffer P3, Program CB-150). For each 20 μl nucleofection reaction, 0.2-0.5×106 iPSC were transfected with up to 4 μg of plasmid DNA. Post-nucleofection, iPSC were plated onto solubilized basement membrane matrix secreted by Engelbreth-Holm-Swarm (EHS) mouse sarcoma cells sold under the trademark […]®-coated wells containing feeder-free cell culture medium sold under the trademark MTESR1™ media with 10 μM Y-27632 plus other chemical inhibitors when noted. Later experiments included 50 μM zVAD-fmk (Bachem) for 1 day and 10 μM SB203580 (Biovision) for 4-5 days post transfection (see FIGS. 5, 6, 11, and 12). For FIG. 6 (ssODN transfection), 200 ng/ml recombinant B 18R (eBioscience), was also added to the culture for 5 days post transfection.\nThe following inhibitors were added to the hiPSC culture at the concentrations and time periods indicated in the Examples below. • 1. p53 or Bax inhibitors: cyclic pifithrin α (StemCell Technologies); pifithrin (Tocris); peptide V5, peptide control, iMAC1 and iMAC2 (EMD Millipore); N-acetyl cysteine and 4-hydroxy TEMPO (TEMPOL) (Sigma). • 2."}, "[3]": {"conditions": "10 μM SB203580 added to hiPSC media after nucleofection"}},
  "note": "Read-outs that look alike come from different tables or passages of the source. Peptide text beside a SMILES is read from it. * marks the point of attachment. Cbz = O=C(OCc1ccccc1)*; CH2F = FC*",
  "data": [
    {"compound": "CCCCCCNC(=O)Nc1ccc(S(=O)(=O)Nc2ccc(CCNC[C@H](O)COc3ccc(O)cc3)cc2)cc1", "note": "[L755507]", "values": [
      {"measurement": "mThy1 gene targeting efficiencies", "setting": "human iPSC [1]", "value": "neither the DNA ligase IV inhibitor SCR7 (Maruyama et al., 2015) nor the β3-adrenergic receptor agonist L755507 (Yu et al., 2015) improved mThy1 gene targeting efficiencies"}
    ]},
    {"compound": "Cc1ccc(C(=O)Cn2c3c(sc2=N)CCCC3)cc1", "note": "[Pifithrin α]", "values": [
      {"measurement": "mThy1 gene targeting in hiPSC", "setting": "human iPSC [1]; 20 μM pifithrin α in media for three days after nucleofection", "value": "did not enhance hiPSC gene targeting"}
    ]},
    {"compound": "C[S+]([O-])c1ccc(-c2nc(-c3ccncc3)c(-c3ccc(F)cc3)[nH]2)cc1", "note": "(stereo not shown) [SB203580]", "values": [
      {"measurement": "gene targeting efficiency", "setting": "human iPSC [1]; [3]", "value": "did enhance gene targeting efficiency"},
      {"measurement": "cell survival", "setting": "human iPSC [2]; [3]", "value": "did not affect cell survival"}
    ]},
    {"compound": "O=c1[nH]c(=S)[nH]c(N=Cc2ccccc2)c1N=Cc1ccccc1", "note": "[SCR7]", "values": [
      {"measurement": "mThy1 gene targeting efficiencies", "setting": "human iPSC [1]", "value": "neither the DNA ligase IV inhibitor SCR7 (Maruyama et al., 2015) nor the β3-adrenergic receptor agonist L755507 (Yu et al., 2015) improved mThy1 gene targeting efficiencies"}
    ]},
    {"compound": "CC1(C)CC(O)CC(C)(C)N1[O]", "note": "[TEMPOL, 4-hydroxy TEMPO]", "values": [
      {"measurement": "mThy1 gene targeting in hiPSC", "setting": "human iPSC [1]; 50 μM TEMPOL in media for three days after nucleofection", "value": "no effect"}
    ]},
    {"compound": "COC(=O)CC[C@H](NC(=O)[C@H](C)NC(=O)OCc1ccccc1)C(=O)N[C@H](C(=O)N[C@@H](CC(=O)OC)C(=O)CF)C(C)C", "note": "[zAEVD-fmk] (Cbz-AE(OMe)VD(OMe)-CH2F)", "values": [
      {"measurement": "rescue of hiPSC from cell death (anoikis) after nucleofection", "setting": "human iPSC [2]", "value": "prevented anoikis"}
    ]},
    {"compound": "COC(=O)CC[C@H](NC(=O)[C@H](CC(=O)OC)NC(=O)OCc1ccccc1)C(=O)N[C@H](C(=O)N[C@@H](CC(=O)OC)C(=O)CF)C(C)C", "note": "[zDEVD-fmk]", "values": [
      {"measurement": "anoikis rescue", "setting": "human iPSC [2]; lower concentration, 25 μM", "value": "did not show as much anoikis rescue"},
      {"measurement": "rescue of hiPSC from cell death (anoikis) after nucleofection", "setting": "human iPSC [2]", "value": "prevented anoikis"}
    ]},
    {"compound": "COC(=O)CC[C@H](NC(=O)[C@H](CC(C)C)NC(=O)OCc1ccccc1)C(=O)N[C@@H](Cc1cnc[nH]1)C(=O)N[C@@H](CC(=O)OC)C(=O)CF", "note": "[zLEHD-fmk] (Cbz-LE(OMe)HD(OMe)-CH2F)", "values": [
      {"measurement": "toxicity to hiPSC", "setting": "human iPSC [2]; after nucleofection, higher concentration than 25 μM (FIG. 10C)", "value": "very toxic"},
      {"measurement": "toxicity to hiPSC", "setting": "human iPSC [2]; lower concentration, 25 μM", "value": "did not show as much"}
    ]},
    {"compound": "COC(=O)C[C@H](NC(=O)[C@H](C)NC(=O)[C@@H](NC(=O)OCc1ccccc1)C(C)C)C(=O)CF", "note": "[zVAD(OMe)-fmk] (Cbz-Val-Ala-Asp(OMe)-CH2F)", "values": [
      {"measurement": "rescue of hiPSC from cell death (anoikis) after nucleofection", "setting": "human iPSC [2]", "value": "rescued cells transfected with an sgRNA, and also those transfected with the pUC19 control"}
    ]},
    {"compound": "VPMLK (peptide V5)", "values": [
      {"measurement": "mThy1 gene targeting in hiPSC", "setting": "human iPSC [1]; 200 μM peptide V5 in media for three days after nucleofection", "value": "only a very slight improvement in gene targeting"}
    ]}
  ]
}
